Assay results from patent EP0570714B1, “Use of aminoalcohol-N-acylderivatives for the manufacture of a medicament for the treatment of neurogenic endoneural oedema of the peripheral nerve” (LIFEGROUP S.p.A., priority 1992, dated 1993).
“And” between values parts separate entries of the source, which are not always exact repeats. Equal values may be shown once.

Columns and labels:
[1] = Physical chemical characteristics: solubility; assay type: physicochemical
Source text: The physical chemical characteristics of the N-PEA product synthesized according to the present example were the following : […]

[2] = tested on: mast cells; experiment: Mast cell degranulation after crushing of the sciatic nerve (in vivo, histological count); set-up: species or system Male Spraugue Dawley Rats; settings: 20 mg/kg intraperitoneally for 15 days, on soy lecithin liposomes, sciatic nerve compression at 16th day, sacrifice three hours after, control average 61.4
Procedure: In order to verify the pharmacological activity of N-acyl derivatives of aminoalcohols, and in particular of N-PEA, under conditions of traumatic noxa due to crushing of the sciatic nerve, and therefore able to induce mast cells degranulation, the following "in vivo" biologic test was carried out.
Male Spraugue Dawley Rats weighing about 200 -250 g were divided into two groups and subjected for 15 days to two different treatments: the first group, being the control group, was intraperitoneally treated with a solution of liposomes of soy lecithin, whereas the second group was intraperitoneally treated with 20 mg/kg N-PEA vehiculated on soy lecithin liposomes.
At the 16th day the animals were subjected to a bland general anesthesia with ethyl ether, thereby proceeding to the operation of the nerve lesion as hereinbelow described. The left sciatic nerve was exposed just in the spot of its entrance to the haunch, by operating a dissection of the muscular bands. The thus exposed sciatic nerve was then repeatedly compressed as closest as possible to its origin, by using a crushing forceps. The wound was temporarily sewn up and the animals were left to recover.
Three hours after the sciatic nerve compression lesion the animals were sacrificed in order to take the sciatic nerve samples and to fix it for the histological analysis with a mixture of acetic acid and formalin. […]

CCCCCCCCCCCCCCCC(=O)NCCO [N-PEA, N-(2-hydroxyethyl)hexadecanamide]
solubility in water [1]: insoluble
solubility in organic solvent ([1]; solvents in which soluble): Hot MetOH, CHCl3, DMSO
solubility in aqueous vehicles ([1]; stated as the reason for choosing the liposome vehicle): poor solubility
Number of degranulated cells on a total of 100 examined cells, average ([2]; average of 5 rats): 36.6
Number of degranulated cells on a total of 100 examined cells ([2]; individual rats, 20 mg/kg): 35 and 44 and 37 and 25 and 42
